Laboratory results published in patent EP1841748B1, “ORGANOSELENIUM CONTAINING COMPOUNDS AND THEIR USE” (Seoul National University Industry Foundation, priority 2004, dated 2006).

Key:
[1] = Animal test: prevention of obesity under high-fat diet; assay type: in vivo, C57BL/6 mice; conditions: for increase in body weight: 10 mg/kg/day orally over a 78-day period of high-fat diet (feed with 35 % fat), vehicle group 102 %; for increase in body weight relative to the vehicle group: 10 mg/kg/day orally, 78-day high-fat diet, fraction of vehicle group's increase
Description: Animal test was performed with mice in order to confirm the in vivo effect of HK101225. 14-weeks old C57BL/6 mice (SLC Co.) were used and a feed containing 35 % of fat was given to induce obesity. A vehicle, GW501516 (10 mg/kg/day) and HK101225 (10 mg/kg/day) were orally administered over a 78-day period of high-fat diet. […] Thus, it was confirmed that HK101225 has a strong prevention effect against obesity.

[2] = GTT (glucose tolerance test): improvement of diabetes; assay type: in vivo, mice; conditions: after 78-day oral administration; for change of blood sugar level with time: followed to 120 minutes
Description: GTT (glucose tolerance test) was performed in order to confirm the diabetic improvement effect of the compound of the present invention. A vehicle, GW501516 and HK101225 were orally administered to mice over a 78-day period. Then, glucose (1.5 g/kg) was abdominally administered and change of blood sugar level with time was checked.

PPARγ = biological target: T1, PPARγ (Homo sapiens, UniProt P37231); assay: Transfection assay (luciferase reporter, full-length PPARs plasmid DNA) in CV-1 cells; assay type: cell-based; conditions: 24 hours treatment, luciferase calibrated with β-galactosidase
T1 construct: Full-length PPARs plasmid DNA, reporter DNA, which has luciferase activity; expressed in transfected cells; host or cells: CV-1 cells
T1 sequence (P37231 1-505): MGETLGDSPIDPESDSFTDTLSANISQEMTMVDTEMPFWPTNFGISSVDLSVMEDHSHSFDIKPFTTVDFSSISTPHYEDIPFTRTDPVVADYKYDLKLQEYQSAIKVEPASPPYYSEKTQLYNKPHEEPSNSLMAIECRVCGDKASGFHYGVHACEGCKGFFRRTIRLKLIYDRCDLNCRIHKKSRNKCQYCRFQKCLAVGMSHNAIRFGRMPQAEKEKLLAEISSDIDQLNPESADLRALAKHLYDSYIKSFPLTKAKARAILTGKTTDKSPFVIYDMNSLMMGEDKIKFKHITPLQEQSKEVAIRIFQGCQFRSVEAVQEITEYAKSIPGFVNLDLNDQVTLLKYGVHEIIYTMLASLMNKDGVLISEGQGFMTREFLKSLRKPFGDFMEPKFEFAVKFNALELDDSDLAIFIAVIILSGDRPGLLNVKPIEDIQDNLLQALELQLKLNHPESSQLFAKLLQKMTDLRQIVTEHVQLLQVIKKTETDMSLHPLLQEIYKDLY
Description: (§1) Transfection assay was performed using CV-1 cells. The cells were cultured with a DMEM medium containing 10 % FBS, DBS (delipidated) and 1 % penicillin/streptomycin in 37 °C of a transfection assay culture system containing 5 % of carbon dioxide on a 96-well plate. Test was performed in four stages - cell inoculation, transfection, treatment with the compound of the present invention and confirmation. The CV-1 cells were inoculated on the 96-well plate, 5,000 cells/well. Transfection was performed 24 hours later. Full-length PPARs plasmid DNA, reporter DNA, which has luciferase activity and thus enables confirmation of the activity for PPARs, and β-galactosidase DNA, which offers effective information on the transfection, were used. HK101225 prepared in Example 4 was dissolved in dimethylsulfoxide (DMSO) and treated to the cells at various concentrations. After 24 hours of culturing in an incubator, the cells were lysed with a lysis buffer and luciferase activity and β-galactosidase activity were measured using a luminometer and a microplate reader. The measured luciferase activity was calibrated with the β-galactosidase activity. The result was depicted on a graph and EC50 was determined.

PPARδ = biological target: T2, PPARδ (Homo sapiens, UniProt Q03181); assay: as above; assay type: cell-based; conditions: 24 hours treatment, luciferase calibrated with β-galactosidase
T2 construct: Full-length PPARs plasmid DNA, reporter DNA, which has luciferase activity; expressed in transfected cells; host or cells: CV-1 cells
T2 sequence (Q03181 1-441): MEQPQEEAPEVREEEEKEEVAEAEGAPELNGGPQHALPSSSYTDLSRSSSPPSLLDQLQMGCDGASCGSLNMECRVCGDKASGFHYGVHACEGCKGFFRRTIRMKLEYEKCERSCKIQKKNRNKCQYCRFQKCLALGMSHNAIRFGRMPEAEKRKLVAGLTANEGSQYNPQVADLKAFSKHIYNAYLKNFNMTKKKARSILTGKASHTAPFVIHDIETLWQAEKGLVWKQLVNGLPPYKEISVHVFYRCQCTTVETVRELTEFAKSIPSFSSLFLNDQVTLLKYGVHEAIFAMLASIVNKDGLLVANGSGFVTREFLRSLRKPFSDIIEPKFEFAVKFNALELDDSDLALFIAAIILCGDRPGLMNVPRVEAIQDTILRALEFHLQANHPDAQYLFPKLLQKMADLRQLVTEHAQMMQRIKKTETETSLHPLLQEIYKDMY
Description: as §1

PPARα = biological target: T3, PPARα (Homo sapiens, UniProt Q07869); assay: as above; assay type: cell-based; conditions: 24 hours treatment, luciferase calibrated with β-galactosidase
T3 construct: Full-length PPARs plasmid DNA, reporter DNA, which has luciferase activity; expressed in transfected cells; host or cells: CV-1 cells
T3 sequence (Q07869 1-468): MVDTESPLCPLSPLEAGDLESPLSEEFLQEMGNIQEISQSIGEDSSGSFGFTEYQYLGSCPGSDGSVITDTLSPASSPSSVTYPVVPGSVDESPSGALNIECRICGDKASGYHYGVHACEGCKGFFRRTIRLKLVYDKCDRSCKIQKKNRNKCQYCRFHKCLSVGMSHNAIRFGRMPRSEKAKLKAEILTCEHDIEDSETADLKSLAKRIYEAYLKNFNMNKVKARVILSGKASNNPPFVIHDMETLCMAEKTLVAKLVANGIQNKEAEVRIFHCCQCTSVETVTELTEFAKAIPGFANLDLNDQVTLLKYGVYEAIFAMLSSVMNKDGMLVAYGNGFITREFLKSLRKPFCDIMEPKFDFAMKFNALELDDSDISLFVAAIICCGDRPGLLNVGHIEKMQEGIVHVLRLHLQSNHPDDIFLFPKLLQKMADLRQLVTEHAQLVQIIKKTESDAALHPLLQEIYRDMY
Description: as §1

CV-1 cells = assay: MTT assay (cell toxicity); assay type: cell-based; conditions: 24 hours, at the concentration of 50,000 times of the EC50 (1.87 nM) value
Description: Toxicity was tested by MTT assay for HK101225 prepared in Example 4. MTT is a water-soluble, yellow substance. However, when introduced in a living cell, it is transformed into a water-insoluble, purple crystal by the mitochondrial dehydrogenase. Cell toxicity can be tested by dissolving this substance in dimethylsulfoxide and measuring light absorbance at 550 nm. The test was performed as follows.
CV-1 cells were inoculated on a 96-well plate, 5,000 cells/well. After culturing for 24 hours in a humidified culture system of 37 °C containing 5 % of carbon dioxide, the cells were treated with HK101225 at various concentrations. MTT reagent was added after 24 hours of culturing. After culturing for about 15 minutes, the purple crystal was dissolved in dimethylsulfoxide and absorbance was measured with a microplate reader to confirm cell toxicity.

Structure (SMILES) | increase in body weight [1] [%] | increase in body weight relative to the vehicle group [1] | change of blood sugar level with time ([2]; glucose 1.5 g/kg abdominally) | fasting blood sugar level ([2]; compared with vehicle and GW501516 groups) | time to complete glucose clearance ([2]; glucose 1.5 g/kg abdominally) [min] | EC50 (PPARγ) [µM] | EC50 (PPARδ) [µM] | EC50 (PPARα) [µM] | toxicity (CV-1 cells)
Cc1cc(SCc2sc(-c3ccc(C(F)(F)F)cc3)nc2C)ccc1OCC(=O)O [GW501516, [2-methyl-4-[[[4-methyl-2-[4-(trifluoromethyl)phenyl]-1,3-thiazol-5-yl]methyl]sulfanyl]phenoxy]acetic acid, reference compound] | 21 | about 1/5 | blood sugar level lower than that of the vehicle group, but did not restore to the normal level |  |  |  |  |  | 
Cc1cc([Se]Cc2sc(-c3ccc(C(F)(F)F)cc3)nc2C)ccc1OCC(=O)O [HK101225, 2-[4-[[2-[4-(trifluoromethyl)phenyl]-4-methylthiazol-5-yl]methylselanyl]-2-methylphenoxy]acetic acid] | 21 | about 1/5 | rapid decrease of blood sugar level between 20 and 40 minutes | lower fasting blood sugar level than the groups to which the vehicle and GW501516 were administered | 100 | > 10 | 0.00187 | > 10 | no toxicity
